Source: patent US12582664B2, “Treatment of fragile x syndrome with cannabidiol” (Harmony Biosciences Management, Inc., priority 2017, dated 2026)

Columns and labels:
[1] = system: children and adolescents with autism spectrum disorder; test: Aberrant Behavior Checklist-Community (ABC-C), BRIGHT study; parameters: species or system human; conditions: in vivo
Source text: Another test that can be used by clinicians to measure the severity of symptoms of ASD is the Aberrant Behavior Checklist-Community test (ABC-C). The original Aberrant Behavior Checklist (ABC) was designed to assess behavioral concerns of adults within institutional settings. The original ABC was later adapted to address patients who are not institutionalized and specifically to address subjects diagnosed with ASD. The Aberrant Behavior Checklist-Community (ABC-C) is used by clinicians, doctors, and researchers to access certain behaviors in non-institutionalized patients with ASD. […]
An exploratory open-label safety, tolerability and efficacy study of Zygel™ ZYN002 transdermal gel to 37 children and adolescents with autism spectrum disorder was conducted. […] ASD was confirmed by Diagnostic and Statistical Manual of Mental Disorders, 5th edition (DSM-5) diagnostic criteria to assess the safety and efficacy of ZYN002 in treating ASD-related behaviors as measured by a variety of efficacy assessments. […]
Subjects were administered a 250 or 500 mg total daily dose, administered twice daily, of CBD in the form of ZYN002 CBD transdermal gel for 14 weeks. […] The trial evaluated multiple efficacy assessments, including the ABC-C, PRAS-ASD, Autism Parenting Stress Index, Autism Impact Measure (AIM), and Clinical Global Impression-Severity (CGI-S) and Improvement (CGI-I). […]

[2] = system: patients with FXS and comorbid ASD; test: Pooled analysis of Week 12 change in ABC-C Irritability versus placebo; assay type: in vivo, human
Source text: The data collected from the studies presented herein, and other similar studies were pooled together and analyzed. […] The subjects had moderate to severe symptoms of ASD (ADOS-2, comparison score greater than, or equal to, 5). The data presented in Table 2 is the Week 12 change in ABC-C Irritability of all patients. In previous studies (such as presented in Example 1, Table 1) the data was enriched by removing the non-completers from the analysis and only presenting data from the completers.

C=C(C)C1CCC(C)=CC1c1c(O)cc(CCCCC)cc1O (stereo not drawn) [CBD, 2-[3-methyl-6-(1-methylethenyl)-2-cyclohexen-1-yl]-5-pentyl-1,3-benzenediol]
improvement in irritability, PRAS score >37 compared to ≤37 [1]: twice as much improvement in irritability | improvement in irritability, ABC-CFXS Social Avoidance score >7 compared to ≤7 ([2]; ASD subjects): twice as much improvement in irritability | subjects showing an improvement in irritability, high social avoidance and/or anxiety scores compared to lesser scores ([2]; in vivo): about twice as many subjects
